Assay results as given in patent publication US9669031B2, “MNK inhibitors and methods related thereto” (eFFECTOR Therapeutics, Inc., priority 2014, dated 2017).
Where two headings read alike, the source gives them in different places.

How the values were obtained:
[1] = Balb/c, mouse, in vivo, po, 10 mg/kg
in vivo = conditions: Balb/c, mouse, po, 10 mg/kg; for AUC(0-t): AUClast; for half-life: T½
[2] = Pharmacokinetics in Balb/c mice, single intravenous bolus administration; assay type: in vivo; conditions: intravenous bolus 1 mg/kg, gender F; for AUC(0-inf) / half-life / Vd: female, mouse, plasma; for AUC(0-inf): read-out: AUCINF_obs; for half-life: read-out: T½ (converted); for Vd: read-out: Vss
[3] = formulation 10DMI/15EtOH/35PG/40Saline
[4] = formulation 10DMI/15EtOH/35PG/40D5W

| Structure (SMILES) | Tlast ([1]; female) [h] | AUC(0-t) (in vivo; female) [ng·h/mL] | Cmax (in vivo; female) [ng/mL] | Tmax (in vivo; female) [h] | half-life (in vivo; female) [min] | also measured |
| --- | --- | --- | --- | --- | --- | --- |
| CC1(C2CCCC2)NC(=O)c2ccc(Nc3ccncn3)c(=O)n21 (stereo not drawn) [Cpd. No. 9, 3-cyclopentyl-3-methyl-6-(pyrimidin-4-ylamino)-2,3-dihydroimidazo[1,5-a]pyridine-1,5-dione] |  |  |  |  |  | Tlast ([1]; male): 8 h; AUC(0-t) (in vivo; male): 4830 ng·h/mL; Cmax (in vivo; male): 5050 ng/mL; Tmax (in vivo; male): 0.5 h; half-life (in vivo; male): 49.9 min |
| CC1(C)NC(=O)c2ccc(Nc3cc(NC(=O)C4CC4)ncn3)c(=O)n21 [Cpd. No. 10, N-(6-((3,3-dimethyl-1,5-dioxo-1,2,3,5-tetrahydroimidazo[1,5-a]pyridin-6-yl)amino)pyrimidin-4-yl)cyclopropanecarboxamide] | 8 | 6420 | 1720 | 0.5 | 112 | AUC(0-inf) [2, 3]: 396 ng·h/mL; half-life [2, 3]: 168 min; Vd [2, 3]: 5.45 L/kg; Cl_obs [2, 3]: 42.1 mL/min/kg; Tlast ([1]; male): 24 h; AUC(0-t) (in vivo; male): 8750 ng·h/mL; Cmax (in vivo; male): 2160 ng/mL; Tmax (in vivo; male): 1 h; half-life (in vivo; male): 253 min |
| CC1(C(F)(F)F)NC(=O)c2ccc(Nc3ccncn3)c(=O)n21 (stereo not drawn) [Cpd. No. 14, 3-methyl-6-(pyrimidin-4-ylamino)-3-(trifluoromethyl)-2,3-dihydroimidazo[1,5-a]pyridine-1,5-dione] |  |  |  |  |  | Tlast ([1]; male): 8 h; AUC(0-t) (in vivo; male): 255 ng·h/mL; Cmax (in vivo; male): 405 ng/mL; Tmax (in vivo; male): 0.5 h |
| O=C1NC2(CCCNC2)n2c1ccc(Nc1ccncn1)c2=O (stereo not drawn) [Cpd. No. 20, 6-(pyrimidin-4-ylamino)-1H-spiro[imidazo[1,5-a]pyridine-3,3′-piperidine]-1,5(2H)-dione] | 4 | 2090 | 2240 | 0.5 | 38.6 |  |
| O=C1NC2(CCCC2)n2c1ccc(Nc1cc(NC(=O)C3CC3)ncn1)c2=O [Cpd. No. 21, N-[6-[(1,5-dioxospiro[2H-imidazo[1,5-a]pyridine-3,1′-cyclopentane]-6-yl)amino]pyrimidin-4-yl]cyclopropanecarboxamide] | 4 | 109 | 50.2 | 0.5 | 160 |  |
| CC1(CC(F)(F)F)NC(=O)c2ccc(Nc3cc(NC(=O)C4CC4)ncn3)c(=O)n21 (stereo not drawn) [Cpd. No. 22, N-(6-((3-methyl-1,5-dioxo-3-(2,2,2-trifluoroethyl)-1,2,3,5-tetrahydroimidazo[1,5-a]pyridin-6-yl)amino)pyrimidin-4-yl)cyclopropanecarboxamide] | 8 | 1620 | 371 | 2 | 116 |  |
| CC1(C2CCCC2)NC(=O)c2ccc(Nc3cc(NC(=O)C4CC4)ncn3)c(=O)n21 (stereo not drawn) [Cpd. No. 23, N-[6-[(3-cyclopentyl-3-methyl-1,5-dioxo-2H-imidazo[1,5-a]pyridin-6-yl)amino]pyrimidin-4-yl]cyclopropanecarboxamide] | 8 | 75.7 | 17.5 | 1 | 209 |  |
| CC1(C(F)(F)F)NC(=O)c2ccc(Nc3cc(NC(=O)C4CC4)ncn3)c(=O)n21 (stereo not drawn) [Cpd. No. 24, N-[6-[[3-methyl-1,5-dioxo-3-(trifluoromethyl)-2H-imidazo[1,5-a]pyridin-6-yl]amino]pyrimidin-4-yl]cyclopropanecarboxamide] | 8 | 921 | 192 | 2 | 115 |  |
| CC1(C(F)(F)F)NC(=O)c2c(Cl)cc(Nc3ccncn3)c(=O)n21 (stereo not drawn) [Cpd. No. 35, 8-chloro-3-methyl-6-(pyrimidin-4-ylamino)-3-(trifluoromethyl)-2H-imidazo[1,5-a]pyridine-1,5-dione] | 24 | 71300 | 6930 | 2 | 208 |  |
| CC1(C)NC(=O)c2c(Cl)cc(Nc3cc(NC(=O)C4CC4)ncn3)c(=O)n21 [Cpd. No. 43, N-[6-[(8-chloro-3,3-dimethyl-1,5-dioxo-2H-imidazo[1,5-a]pyridin-6-yl)amino]pyrimidin-4-yl]cyclopropanecarboxamide] | 8 | 132 | 21.8 | 2 | 405 |  |
| O=C1NC2(CCCCC2)n2c1c(Cl)cc(Nc1cc(NC(=O)C3CC3)ncn1)c2=O [Cpd. No. 45, N-(6-((8′-chloro-1′,5′-dioxo-1′,5′-dihydro-2′H-spiro[cyclohexane-1,3′-imidazo[1,5-a]pyridin]-6′-yl)amino)pyrimidin-4-yl)cyclopropanecarboxamide] | 8 | 42.9 | 9.16 | 2 | 453 |  |
| O=C1NC2(CCC(F)(F)CC2)n2c1c(Cl)cc(Nc1cc(NC(=O)C3CC3)ncn1)c2=O [Cpd. No. 50, N-[6-[(8-chloro-4′,4′-difluoro-1,5-dioxo-spiro[2H-imidazo[1,5-a]pyridine-3,1′-cyclohexane]-6-yl)amino]pyrimidin-4-yl]cyclopropanecarboxamide] | 24 |  |  | 4 |  | AUC(0-inf) [2, 3]: 887 ng·h/mL; half-life [2, 3]: 148 min; Vd [2, 3]: 3.18 L/kg; Cl_obs [2, 3]: 18.8 mL/min/kg |
| CC1(c2cccc(Cl)c2)NC(=O)c2c(Cl)cc(Nc3cc(NC(=O)C4CC4)ncn3)c(=O)n21 (stereo not drawn) [Cpd. No. 51, N-[6-[[8-chloro-3-(3-chlorophenyl)-3-methyl-1,5-dioxo-2H-imidazo[1,5-a]pyridin-6-yl]amino]pyrimidin-4-yl]cyclopropanecarboxamide] | 24 | 31300 | 3160 |  | 443 | AUC(0-inf) [2, 3]: 2500 ng·h/mL; half-life [2, 3]: 347 min; Vd [2, 3]: 2.79 L/kg; Cl_obs [2, 3]: 6.66 mL/min/kg; AUClast ([1]; female): 35.8 µg·h/mL; T½ ([1]; female): 8.36 h |
| CC1(c2cccc(F)c2)NC(=O)c2c(Cl)cc(Nc3cc(NC(=O)C4CC4)ncn3)c(=O)n21 (stereo not drawn) [Cpd. No. 52, N-[6-[[8-chloro-3-(3-fluorophenyl)-3-methyl-1,5-dioxo-2H-imidazo[1,5-a]pyridin-6-yl]amino]pyrimidin-4-yl]cyclopropanecarboxamide] | 24 | 38100 | 3370 |  | 325 | AUClast ([1]; female): 22.3 µg·h/mL; T½ ([1]; female): 3.56 h |
| Cl.O=C1NC2(CCCNC2)n2c1c(Cl)cc(Nc1ccncn1)c2=O (stereo not drawn) [Cpd. No. 54, 8-chloro-6-(pyrimidin-4-ylamino)spiro[2H-imidazo[1,5-a]pyridine-3,3′-piperidine]-1,5-dione hydrochloride] |  |  | 1050 | 0.5 |  |  |
| CC1(CC(F)(F)F)NC(=O)c2c(Cl)cc(Nc3ccncn3)c(=O)n21 (stereo not drawn) [Cpd. No. 55, 8-chloro-3-methyl-6-(pyrimidin-4-ylamino)-3-(2,2,2-trifluoroethyl)-2H-imidazo[1,5-a]pyridine-1,5-dione] | 24 | 56900 | 6170 | 1 | 157 |  |
| CC1(c2cccc(Cl)c2)NC(=O)c2c(Cl)cc(Nc3ccncn3)c(=O)n21 (stereo not drawn) [Cpd. No. 58, 8-chloro-3-(3-chlorophenyl)-3-methyl-6-(pyrimidin-4-ylamino)-2H-imidazo[1,5-a]pyridine-1,5-dione] | 24 | 5430 | 690 | 2 | 319 |  |
| Nc1cc(Nc2cc(Cl)c3n(c2=O)C2(CCCCC2)NC3=O)ncn1 [Cpd. No. 70, 6′-((6-aminopyrimidin-4-yl)amino)-8′-chloro-2′H-spiro[cyclohexane-1,3′-imidazo[1,5-a]pyridine]-1′,5′-dione] | 8 | 1470 | 983 | 0.25 | 120 | AUC(0-inf) [2, 4]: 333 ng·h/mL; half-life [2, 4]: 33.7 min; Vd [2, 4]: 1.8 L/kg; Cl_obs [2, 4]: 50.1 mL/min/kg; AUClast ([1]; female): 2.01 µg·h/mL; T½ ([1]; female): 3.74 h |
| Cl.O=C1NC2(CCCCC2)n2c1c(Cl)cc(Nc1ccncn1)c2=O [Cpd. No. 109, 8-chloro-6-(pyrimidin-4-ylamino)spiro[2H-imidazo[1,5-a]pyridine-3,1′-cyclohexane]-1,5-dione hydrochloride] |  |  | 630 | 0.3 | 150 |  |
| Cl.O=C1NC2(CCC(F)(F)CC2)n2c1c(Cl)cc(Nc1ccncn1)c2=O [Cpd. No. 110, 8-chloro-4′,4′-difluoro-6-(pyrimidin-4-ylamino)spiro[2H-imidazo[1,5-a]pyridine-3,1′-cyclohexane]-1,5-dione hydrochloride] |  |  | 1700 | 0.3 | 156 |  |
